Source: BindingDB's records for doi:10.1016/j.bmcl.2013.05.031 (Second Military Medical University, 2013)

Target: Acrosin (Homo sapiens, UniProt P10323)
Test: Inhibition of human sperm acrosin using BAPNA as substrate after 3 hrs by spectrophotometric analysis

Acrosin, sequence (P10323 20-42 limits assumed): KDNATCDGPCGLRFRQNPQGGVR
Acrosin, sequence (P10323 43-343 limits assumed): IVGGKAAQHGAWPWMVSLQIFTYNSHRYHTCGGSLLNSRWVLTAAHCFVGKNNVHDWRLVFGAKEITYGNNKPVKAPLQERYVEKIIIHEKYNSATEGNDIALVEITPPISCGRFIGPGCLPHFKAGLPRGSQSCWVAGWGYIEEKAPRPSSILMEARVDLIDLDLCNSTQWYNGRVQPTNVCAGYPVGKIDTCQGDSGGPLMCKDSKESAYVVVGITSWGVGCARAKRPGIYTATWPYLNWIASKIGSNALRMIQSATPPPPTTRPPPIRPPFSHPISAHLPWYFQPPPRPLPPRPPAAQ

Row | SMILES | IC50
1 | O=Cc1cc(-c2ccc(Cl)cc2Cl)on1 | 390 µM
2 | CC(O)CNC(=O)c1cc(-c2ccccc2)[nH]n1 (stereo not drawn) | 60 µM
3 | O=C(c1cc(-c2ccccc2)[nH]n1)N(CCO)CCO | 1700 µM
4 | O=C(NCCO)c1cc(-c2ccccc2)n[nH]1 | 2800 µM
5 | CC(CO)NC(=O)c1cc(-c2ccc(Br)cc2)n[nH]1 (stereo not drawn) | 880 µM
6 | CC(O)CNC(=O)c1cc(-c2ccc(Br)cc2)n[nH]1 (stereo not drawn) | 330 µM
7 | O=C(c1cc(-c2ccc(Br)cc2)n[nH]1)N(CCO)CCO | 1520 µM
8 | O=C(NC(CO)(CO)CO)c1cc(-c2cccc([N+](=O)[O-])c2)[nH]n1 | 760 µM
9 | O=C(NCCOCCO)c1cc(-c2cccc([N+](=O)[O-])c2)n[nH]1 | 9100 µM
10 | CN(CCO)C(=O)c1cc(-c2cccc([N+](=O)[O-])c2)n[nH]1 | 790 µM
11 | CC(O)CNC(=O)c1cc(-c2cccc([N+](=O)[O-])c2)n[nH]1 (stereo not drawn) | 1830 µM
12 | O=C(c1cc(-c2cccc([N+](=O)[O-])c2)n[nH]1)N(CCO)CCO | 2400 µM
13 | O=C(NC(CO)(CO)CO)c1cc(-c2ccc([N+](=O)[O-])cc2)[nH]n1 | 5220 µM
14 | O=C(NCCOCCO)c1cc(-c2ccc([N+](=O)[O-])cc2)n[nH]1 | 2070 µM
15 | CC(C)(CO)NC(=O)c1cc(-c2ccc([N+](=O)[O-])cc2)n[nH]1 | 1870 µM
16 | CN(CCO)C(=O)c1cc(-c2ccc([N+](=O)[O-])cc2)n[nH]1 | 2000 µM
17 | CC(O)CN(CC(C)O)C(=O)c1cc(-c2ccc([N+](=O)[O-])cc2)n[nH]1 (stereo not drawn) | 1210 µM
18 | O=C(c1cc(-c2ccc([N+](=O)[O-])cc2)n[nH]1)N(CCO)CCO | 5600 µM
19 | O=C(NCCO)c1cc(-c2ccc([N+](=O)[O-])cc2)n[nH]1 | 2700 µM
20 | COc1ccc(-c2cc(C(=O)NCCOCCO)[nH]n2)cc1 | 6020 µM
21 | O=C(NC(CO)(CO)CO)c1cc(-c2ccccc2)n[nH]1 | 940 µM
22 | CC(CO)NC(=O)c1cc(-c2ccccc2)[nH]n1 (stereo not drawn) | 3000 µM
23 | CC(O)CN(CC(C)O)C(=O)c1cc(-c2ccccc2)[nH]n1 (stereo not drawn) | 10 µM

Results, then the compound that gave them:

Row | IC50 | SMILES
24 | 410 µM | COc1ccc(-c2cc(C(=O)N(C)CCO)n[nH]2)cc1
25 | 540 µM | O=C(NCCCO)c1cc(-c2ccccc2)[nH]n1
26 | 10000 µM | O=C(NCCOCCO)c1cc(-c2ccc(Br)cc2)[nH]n1
27 | 380 µM | O=C(NCCCO)c1cc(-c2ccc(Br)cc2)[nH]n1
28 | 530 µM | O=C(NCCO)c1cc(-c2ccc(Br)cc2)[nH]n1
29 | 780 µM | O=C(NCCCO)c1cc(-c2cccc([N+](=O)[O-])c2)[nH]n1
30 | 760 µM | O=C(NCCO)c1cc(-c2cccc([N+](=O)[O-])c2)[nH]n1
31 | 2950 µM | CC(O)CNC(=O)c1cc(-c2ccc([N+](=O)[O-])cc2)[nH]n1 (stereo not drawn)
32 | 3070 µM | O=C(NCCCO)c1cc(-c2ccc([N+](=O)[O-])cc2)[nH]n1
33 | 90 µM | COc1ccc(-c2cc(C(=O)NCCO)[nH]n2)cc1
